In ChEMBL document CHEMBL5131570, “Discovery of Potent Small-Molecule USP8 Inhibitors for the Treatment of Breast Cancer through Regulating ERα Expression” (J Med Chem, 2022) one finds IC50, Activity and inhibition data, which are given here for 1 molecule.

The target in data set [1] is T1, Ubiquitin carboxyl-terminal hydrolase 8 (Homo sapiens, UniProt P40818).
T1 sequence (P40818 whole entry): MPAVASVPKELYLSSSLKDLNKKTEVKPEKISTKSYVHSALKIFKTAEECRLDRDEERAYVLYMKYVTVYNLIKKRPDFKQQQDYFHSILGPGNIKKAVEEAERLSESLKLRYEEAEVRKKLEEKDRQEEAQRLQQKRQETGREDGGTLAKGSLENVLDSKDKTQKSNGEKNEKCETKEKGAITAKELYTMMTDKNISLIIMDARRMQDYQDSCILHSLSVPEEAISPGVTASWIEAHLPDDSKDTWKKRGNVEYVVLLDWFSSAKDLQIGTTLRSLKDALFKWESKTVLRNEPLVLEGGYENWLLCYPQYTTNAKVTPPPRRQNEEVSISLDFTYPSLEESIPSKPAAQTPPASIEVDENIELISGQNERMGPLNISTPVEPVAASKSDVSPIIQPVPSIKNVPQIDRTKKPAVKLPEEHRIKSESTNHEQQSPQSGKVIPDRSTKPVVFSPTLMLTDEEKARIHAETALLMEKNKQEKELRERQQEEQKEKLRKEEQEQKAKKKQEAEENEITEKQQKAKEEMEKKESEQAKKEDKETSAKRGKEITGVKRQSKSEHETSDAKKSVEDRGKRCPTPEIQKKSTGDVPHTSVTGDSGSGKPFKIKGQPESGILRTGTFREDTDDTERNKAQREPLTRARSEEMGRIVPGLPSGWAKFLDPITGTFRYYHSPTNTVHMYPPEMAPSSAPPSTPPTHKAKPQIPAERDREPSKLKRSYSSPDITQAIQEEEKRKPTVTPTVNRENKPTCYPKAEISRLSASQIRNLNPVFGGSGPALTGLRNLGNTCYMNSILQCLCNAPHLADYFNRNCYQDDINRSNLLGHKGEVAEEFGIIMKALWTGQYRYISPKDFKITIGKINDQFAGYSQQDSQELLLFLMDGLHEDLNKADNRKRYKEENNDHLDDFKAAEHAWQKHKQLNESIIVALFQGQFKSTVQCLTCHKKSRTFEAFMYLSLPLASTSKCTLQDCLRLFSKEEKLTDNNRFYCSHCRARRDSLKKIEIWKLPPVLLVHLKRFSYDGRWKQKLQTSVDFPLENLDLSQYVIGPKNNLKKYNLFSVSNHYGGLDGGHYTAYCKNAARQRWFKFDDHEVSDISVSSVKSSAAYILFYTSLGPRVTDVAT
Nature of the data set: Inhibition of N-terminal His6-tagged USP8 (unknown origin) catalytic domain (734 to 1110 residues) expressed in Escherichia coli BL21 (DE3) cells assessed as deubiquitinating activity using ubiquitin-rhodamine -110 as substrate incubated for 30 mins followed by substrate addition measured after 30 mins by ubiquitin-rhodamine-110 based fluorometric assay.

In data set [2] the target is T2, Ubiquitin carboxyl-terminal hydrolase 8 (Homo sapiens) (UniProt P40818).
T2 sequence (whole entry): T1 sequence (P40818 whole entry)
The data set can be described thus: Binding affinity to N-terminal His6-tagged USP8 catalytic domain (734 to 1110 residues) (unknown origin) expressed in Escherichia coli BL21 (DE3) cells using K63-linked di-ubiquitin as substrate by di-ubiquitin cleavage assay.

Data set [3] deals with T2, Ubiquitin carboxyl-terminal hydrolase 8 (Homo sapiens). Nature of the data set: Inhibition of N-terminal His6-tagged USP8 catalytic domain (734 to 1110 residues) in HEK293T cell lysates up to 100 uM in presence of HA-Ub-VS probe by USP8 antibody based Western blotting assay. Type of data set: subcellular. (In general: Immunoblotting shows a protein as a band on a membrane.)

For data set [4] the target is unchanged. Nature of the data set: Inhibition of N-terminal His6-tagged USP8 catalytic domain (734 to 1110 residues) in HEK293T intact cells up to 100 uM in presence of HA-Ub-VS probe by USP8 antibody based Western blotting assay. It counts as cell-based.
Data set [5] concerns MCF7. Nature of the data set: Antiproliferative activity against human MCF7 cells assessed as reduction in colony formation at 3 uM incubated for 7 days by crystal violet staining based colony formation assay. It counts as functional, cell-based. The conditions noted are these: time 7.0 day.
For data set [6], the system named is MCF7. The data set can be described thus: Induction of apoptosis in human MCF7 cells assessed as increase in apoptotic cells at 0.5 uM incubated for 12 hrs by AnnexinV-FITC/propidium iodide staining based flow cytometry relative to control (reference value: 2.00 %). Type of data set: functional.
Data set [7] has as its system MCF7. Nature of the data set: Induction of apoptosis in human MCF7 cells assessed as increase in apoptotic cells at 1 uM incubated for 12 hrs by AnnexinV-FITC/propidium iodide staining based flow cytometry relative to control (reference value: 2.00 %). It counts as functional.
Data set [8] concerns MCF7. The data set can be described thus: Induction of apoptosis in human MCF7 cells assessed as increase in apoptotic cells at 2 uM incubated for 12 hrs by AnnexinV-FITC/propidium iodide staining based flow cytometry relative to control (reference value: 2.00 %). It counts as functional. (In flow cytometry, cells or beads pass a laser one at a time.)
In data set [9] the test system is MCF7. The data set can be described thus: Induction of apoptosis in human MCF7 cells assessed as reduction in ErbB2 expression level up to 5 uM incubated for 24 hrs by Western blotting analysis. It counts as functional, cell-based.
For data set [10], the system named is MCF7. The data set can be described thus: Downregulation of ERalpha mRNA level in human MCF7 cells up to 5 uM measured after 24 hrs by RT-qPCR analysis. Type of data set: functional, cell-based. On the technique in general: Quantitative PCR measures a nucleic acid by following its amplification.
Data set [11] relates to MCF7. Nature of the data set: Downregulation of progesterone receptor mRNA level in human MCF7 cells up to 5 uM measured after 24 hrs by RT-qPCR analysis. It counts as functional, cell-based.
The test system of data set [12] is MCF7. Nature of the data set: Downregulation of progesterone receptor expression in human MCF7 cells measured after 24 hrs by Western blotting analysis. Type of data set: functional, cell-based. The note with it: dose 0.5-5 µM, DDE = dose-dependent effect.
For data set [13], the system named is MCF7. Nature of the data set: Downregulation of ERalpha expression in human MCF7 cells assessed as protein stability by measuring reduction in half life measured up to 24 hrs in presence of cycloheximide by Western blotting analysis. It counts as functional, cell-based.
The nature of data set [14]: Toxicity in BALB/c mouse xenografted with human MCF7 cells assessed as change in body weight at 5 to 20 mg/kg, […] every other day for 14 days. Type of data set: organism-based. The conditions noted are these: in vivo, 336 h, dose 5-20 mg/kg, time 14 day.
The subject of data set [15] is MCF7. The data set can be described thus: Antitumor activity against human MCF7 cells xenografted in BALB/c mouse assessed as reduction of ErbB2 phosphorylation in tumor tissue at 5 to 20 mg/kg, ip administered via gavage every other day for 14 days by immunohistochemistry analysis. Type of data set: functional, organism-based. The conditions noted are these: dose 5-20 mg/kg, time 14.0 day.

Data set [16] concerns MCF7. The data set can be described thus: Antitumor activity against human MCF7 cells xenografted in BALB/c mouse assessed as reduction of ERalpha phosphorylation in tumor tissue at 5 to 20 mg/kg, ip administered via gavage every other day for 14 days by immunohistochemistry analysis. It counts as functional, organism-based. The note with it: dose 5-20 mg/kg, time 14.0 day.

Data set [17] is described as follows: Toxicity in BALB/c mouse xenografted with human MCF7 cells assessed as effect on liver at 5 to 20 mg/kg, […] every other day measured after 14 days by hematoxylin and eosin staining based analysis. Type of data set: organism-based. The note with it: in vivo, 336 h, dose 5-20 mg/kg, time 14 day.
The nature of data set [18]: Toxicity in BALB/c mouse xenografted with human MCF7 cells assessed as effect on spleen at 5 to 20 mg/kg, […] every other day measured after 14 days by hematoxylin and eosin staining based analysis. The note with it: in vivo, 336 h, dose 5-20 mg/kg, time 14 day. Type of data set: organism-based.
The nature of data set [19]: Toxicity in BALB/c mouse xenografted with human MCF7 cells assessed as effect on lung at 5 to 20 mg/kg, […] every other day measured after 14 days by hematoxylin and eosin staining based analysis. Type of data set: organism-based. The conditions noted are these: in vivo, 336 h, dose 5-20 mg/kg, time 14 day.
Data set [20] in a line: Toxicity in BALB/c mouse xenografted with human MCF7 cells assessed as effect on alanine aminotransferase level at 5 to 20 mg/kg, […] every other day measured after 14 days. Type of data set: organism-based. The note with it: in vivo, 336 h, dose 5-20 mg/kg, time 14 day.

The source made the active and inactive calls. The rule behind the calls is not given here.

The term IC50 denotes the concentration that gives 50% inhibition. Regarding `Cc1n[nH]c(C)c1Oc1c(O)cc(O)c2c(=O)cc(-c3ccc(N4CCN(c5ccccn5)CC4)cc3)oc12`, in data set [1], the IC50 stood at 1200 nM. The outcome in data set [2], in data set [5], in [9], in [10], in data set [11] and in [13] was Active. Further, the outcome in [15] and in data set [16] was Active. Moreover, the inhibition result in data set [3] and in data set [4] was “Active” each time. In addition, the Activity was 2.5% in data set [6]; 3.45% in [7]; 12.57% in [8]; “Dde” in data set [12]; “Non-Toxic” in [14]; “Non-Toxic” in data set [17]. Moreover, the Activity entry in data set [18], in data set [19] and in data set [20] was “Non-Toxic” in each case.
